Assay: SSSP-MS/MS spot sampling of whole-body thin tissue sections of a propranolol dosed mouse
Assay type: in vivo
Details: male CD-1 mouse, propranolol 7.5 mg/kg i.v., sacrificed 60 min post-dose, 40 μm section, ESI+
Description: At 60 min post-dose, mice were euthanized with an isoflurane overdose and immediately frozen in dry ice/hexane. The frozen mice were embedded/blocked in 2% aqueous carboxymethyl cellulose. Sagittal whole-body cryosections (40 μm thick) were prepared using a Leica CM3600 cryomacrotome and collected onto adhesive tape (8″×3″, 810 Scotch® Brand Magic™ Tape, 3M) then freeze-dried within the chamber of the cryomacrotome. Prior to analysis using the SSSP, tissue sections were stored in a desiccator at room temperature. Color images of the tissue sections were acquired using a HP Scanjet 4370 flat-bed scanner (Hewlett-Packard, Palo Alto, Calif., USA).
The inlet and outlet of the SSSP (“TLC-MS interface”, CAMAG, Muttenz, Switzerland) were coupled to an ACQUITY UltraPerformance Liquid Chromatography (UPLC) system (Waters Corporation, Manchester, UK) and to a 4000 QTRAP® mass spectrometer (MDS SCIEX, Concord, Ontario, Canada), respectively (see FIG. S1 in the Supplemental section). The gas pressure applied via a piston to the plunger of the SSSP interface was about 5 bar. The flow rate of the extraction solvent was 200 μL/min in all cases. For positive ion mode ESI, the emitter voltage was 5 kV and the turbo sprayer heater temperature was 300° C. For positive ion mode APCI, heated nebulizer probe temperature and needle current were 350° C. and 5 μA, respectively.
The extraction solvent flow paths and the individual steps of the surface sampling process with the SSSP are illustrated in FIGS. 3A-3E and 4A-4E. The solvent inlet capillary to the SSSP was connected to the UPLC pump, while the outlet capillary was connected to the ion source (ESI or APCI) of the mass spectrometer. At the beginning of a surface sampling experiment, a sample was positioned under the SSSP plunger while the extraction solvent flowed from the UPLC through a loop into the ion source (as in FIGS. 3A and 4A). Next, the SSSP stainless steel plunger, with 4-mm-diameter disk shape cutting edge, was lowered to seal the sampling area by cutting into and compressing the sample substrate (paper or adhesive tape in this case) (as in FIGS. 3B and 4B). By switching the valve from standby to extraction mode, the solvent previously being pumped directly to the ion source was diverted to the surface, where it extracted the analyte, and any other soluble components, and carried them into the ion source (FIGS. 3C and 4C). After a suitable extraction time (typically 60 seconds), the valve was switched back to direct the extraction solvent from the UPLC through the loop into the ion source (FIGS. 3D and 4D). […] In the final step of the surface sampling process, the plunger was raised up from the surface (FIGS. 3E and 4E) and then a cleaning station was positioned under the probe. Here, using push button control, the sampling face of the plunger was cleaned of accumulated particulate material using a stream of pressurized nitrogen. In the case of the tissue sections on tape, the probe actually cut out a section from the sample which stayed with the probe until removed by this gas jet cleaning. […] This washed the SSSP plunger face and tubing from the plunger to the valve and on into the ion source. Given 15 or 30 s to position the probe for analysis of a DBS or tissue sample spot, respectively, a 60 second extraction time and 60 s wash time to eliminate carryover, spot-to-spot analysis time was either […].
The tissue section was collected onto an adhesive tape substrate, which is a common format to collect whole-body tissue sections for WBA analyses.

Compound	SRM signal in brain (spot 2)	SRM signal in heart (spot 5)	SRM signal in kidney (spot 3)	SRM signal in liver (spot 1)	SRM signal in lung (spot 6)
CC(C)NCC(O)COc1cccc2ccccc12 (stereo not drawn) [propranolol, reference compound]	High				
hydroxypropranolol glucuronide	not detected	Much lower	highest	highest	Much lower
